Laboratory results from ChEMBL document CHEMBL1201862, “PubChem BioAssay data set” (2004).
Calls of active or inactive are those of the source.

Columns and labels:
[1] = target: T1, Type-1 angiotensin II receptor (Homo sapiens, UniProt P30556); test: AT1 receptor antagonists, dose response, selectivity assay for APJ receptor antagonist project, cell-based, uHTS hits (AID 463214); format: functional;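 further: antagonist potency against angiotensin II stimulated AT1 response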
T1 sequence (P30556 whole entry): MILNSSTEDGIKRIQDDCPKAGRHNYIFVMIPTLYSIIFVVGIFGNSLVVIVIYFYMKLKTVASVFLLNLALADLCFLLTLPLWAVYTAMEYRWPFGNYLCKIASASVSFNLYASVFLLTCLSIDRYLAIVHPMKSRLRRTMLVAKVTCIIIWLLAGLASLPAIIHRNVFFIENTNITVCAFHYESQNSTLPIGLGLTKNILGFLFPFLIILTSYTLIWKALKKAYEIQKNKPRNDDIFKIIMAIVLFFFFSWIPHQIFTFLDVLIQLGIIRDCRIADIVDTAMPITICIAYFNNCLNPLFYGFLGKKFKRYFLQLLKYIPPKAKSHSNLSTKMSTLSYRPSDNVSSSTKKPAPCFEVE

[2] = target: Beta-galactosidase (Escherichia coli, UniProt Q8VNN2); test: PubChem AID 485352; format: functional
[3] = insulin promoter down-regulators in MIN6 cells, imaging, high-content screening, mouse beta cells (AID 1628); format: functional
[4] = cytotoxicity in MIN6 insulinoma cells, dose response, cytotoxicity control, cell-based, mouse insulinoma (AID 2122); format: functional;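 further: confirmatory high-throughput counterscreen run to flag cytotoxic compounds; mouse MIN-6 beta cells carrying an insulin promoter eGFP reporter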
[5] = target: T2, Short transient receptor potential channel 4 (Mus musculus, UniProt Q9QUQ5); test: mouse TRPC4 channel activators, dose response, cell-based, HEK293 TRPC4/mu-opioid, Fluo-4 calcium (AID 434937); format: functional
T2 sequence (Q9QUQ5 whole entry): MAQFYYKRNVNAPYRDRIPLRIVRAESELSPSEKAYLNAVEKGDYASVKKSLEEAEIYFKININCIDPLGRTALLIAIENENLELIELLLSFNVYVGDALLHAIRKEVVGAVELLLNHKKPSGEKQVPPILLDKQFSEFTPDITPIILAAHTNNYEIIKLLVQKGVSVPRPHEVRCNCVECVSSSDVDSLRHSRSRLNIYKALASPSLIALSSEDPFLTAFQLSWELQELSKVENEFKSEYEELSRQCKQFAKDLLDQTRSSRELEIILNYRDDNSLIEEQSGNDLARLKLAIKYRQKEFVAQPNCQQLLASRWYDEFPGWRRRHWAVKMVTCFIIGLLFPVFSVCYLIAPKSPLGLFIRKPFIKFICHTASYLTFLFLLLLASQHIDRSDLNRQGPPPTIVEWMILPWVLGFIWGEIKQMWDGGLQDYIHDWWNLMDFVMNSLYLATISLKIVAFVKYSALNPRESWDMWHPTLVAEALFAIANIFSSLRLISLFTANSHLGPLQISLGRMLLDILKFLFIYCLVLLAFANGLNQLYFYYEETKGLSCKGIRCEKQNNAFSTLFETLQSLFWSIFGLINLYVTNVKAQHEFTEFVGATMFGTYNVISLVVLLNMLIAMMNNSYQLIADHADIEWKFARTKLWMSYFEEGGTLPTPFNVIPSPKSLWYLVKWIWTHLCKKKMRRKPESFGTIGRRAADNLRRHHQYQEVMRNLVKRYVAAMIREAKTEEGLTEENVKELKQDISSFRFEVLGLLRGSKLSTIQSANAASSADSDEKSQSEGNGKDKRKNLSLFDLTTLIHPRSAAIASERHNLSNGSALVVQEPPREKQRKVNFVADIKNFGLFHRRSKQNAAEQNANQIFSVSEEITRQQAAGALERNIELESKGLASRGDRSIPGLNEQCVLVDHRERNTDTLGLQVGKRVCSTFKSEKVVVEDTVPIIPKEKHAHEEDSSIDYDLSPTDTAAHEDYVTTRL

[6] = system: Escherichia coli; test: microbe, parasite or virus in culture
[7] = target: T3, Streptokinase A (Streptococcus pyogenes serotype M1, UniProt P10520); test: S. pyogenes streptokinase expression inhibitors, potency, dose response, plasminogen activation absorbance, OD405 (AID 1914); format: functional, Streptococcus pyogenes M1 GAS;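 further: secreted streptokinase activity via plasminogen activation per viability signal from cell pellet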
T3 sequence (P10520 whole entry): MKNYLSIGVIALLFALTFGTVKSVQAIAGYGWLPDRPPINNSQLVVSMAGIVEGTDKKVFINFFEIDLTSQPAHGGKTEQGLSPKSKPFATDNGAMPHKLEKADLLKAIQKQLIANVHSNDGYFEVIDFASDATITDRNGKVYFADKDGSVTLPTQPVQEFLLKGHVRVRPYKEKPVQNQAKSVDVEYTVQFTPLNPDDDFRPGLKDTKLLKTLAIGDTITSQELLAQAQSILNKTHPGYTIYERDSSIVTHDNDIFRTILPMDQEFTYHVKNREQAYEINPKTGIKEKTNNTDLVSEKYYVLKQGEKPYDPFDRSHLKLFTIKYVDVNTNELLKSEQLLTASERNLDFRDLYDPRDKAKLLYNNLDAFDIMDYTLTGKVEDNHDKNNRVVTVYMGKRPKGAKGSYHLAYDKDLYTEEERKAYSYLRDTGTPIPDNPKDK

[8] = Luminescence Cell-Based Dose Retest to Confirm Inhibitors of Cancer Stem Cells. [Related pubchem assays (depositor defined):AID2717, AID2721]; format: functional; settings: Homo sapiens
[9] = system: Streptococcus sp. 'group A'; test: growth inhibition of control SK(-) GAS strain, dose response, counter-screen for streptokinase expression inhibitor project, luminescence, kanamycin, BacTiterGlo, confirmation (AID 1900); format: functional, organism-based
[10] = system: Streptococcus; test: Group A Streptococcus viability loss, dose response, counter-screen for streptokinase expression inhibitor project, luminescence, BacTiterGlo (AID 1915); format: functional, organism-based;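 further: potency for reduction of bacterial viability or growth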
[11] = target: G-protein coupled receptor 55 (Homo sapiens, UniProt Q9Y2T6); test: GPR55 antagonists blocking LPI-driven arrestin recruitment, primary screen, imaging, U2OS, beta-arrestin-GFP, LPI agonist (AID 2013); format: functional;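 further: antagonist potency measured as reduced agonist-driven arrestin aggregation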
[12] = system: Vero; test: cells; format: functional, cell-based; settings: Chlorocebus sabaeus
[13] = system: Vero; test: cells; format: functional; settings: Chlorocebus sabaeus
[14] = target: Cytochrome P450 3A4 (Homo sapiens, UniProt P08684);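 further: CYP3A4 tested as one member of a cytochrome P450 panel screen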
[15] = HEp-2 cell cytotoxicity, dose response, cytotoxicity control for RSV inhibitor project, HTS (AID 2410); format: functional; settings: human respiratory syncytial virus
[16] = system: HEK293; test: cells; format: functional, cell-based; settings: Homo sapiens
[17] = system: HEK293; test: NOD2 signaling inhibitors in MDP-stimulated cells, cell-based, uHTS, luminescence (AID 2001); format: functional; settings: Homo sapiens
[18] = system: HEK293; test: NOD1 signaling inhibitors, primary screen, cell-based, luminescence, uHTS (AID 1578); format: functional; settings: Homo sapiens
[19] = system: HEK293; test: cells; format: functional, cell-based; settings: Homo sapiens; remark: listed apart in the source
[20] = target: Paired box protein Pax-8 (Homo sapiens, UniProt Q06710); test: inhibitors of PAX8-driven TPO luciferase reporter, dose response, RMG-I cells, cherry-pick (AID 687027); format: functional, cell-based;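 further: luciferase reporter driven by Pax8 target thyroperoxidase promoter measured by SteadyGlo luminescence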
[21] = inhibitors of SNCA 5'UTR-driven reporter translation, confirmation, H4 neuroglioma cells, luminescence (AID 1988); format: functional, cell-based
[22] = system: INS1; test: beta cell apoptosis inhibitors, cytokine rescue, dose response, luminescence, retest (AID 449756); format: functional, cell-based; settings: Rattus norvegicus;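 further: cell death triggered by IL-1 beta plus TNF-alpha plus IFN-gamma mixture; protective hits raise ATP signal compared with cytokine alone wells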
[23] = inhibitors of firefly luciferase expression or activity, dose response, H4 neuroglioma cells, luminescence (AID 1990); format: functional, cell-based
[24] = Luminescence Cell-Based Dose Response HTS to Identify Inhibitors of 5'UTR Stem-Loop Driven Prion Protein mRNA Translation in H4 Neuroglioblastoma Cells. [Related pubchem assays: 1827 (Project Summary), 1813 (Primary HTS)]; format: functional
[25] = system: HEK293; test: inhibitors of LMP1-driven NF-kB reporter, dose response, cell-based, HEK293, luciferase, cherry-pick (AID 588343); format: functional; settings: Homo sapiens

Sequence of Beta-galactosidase (Q8VNN2 whole entry): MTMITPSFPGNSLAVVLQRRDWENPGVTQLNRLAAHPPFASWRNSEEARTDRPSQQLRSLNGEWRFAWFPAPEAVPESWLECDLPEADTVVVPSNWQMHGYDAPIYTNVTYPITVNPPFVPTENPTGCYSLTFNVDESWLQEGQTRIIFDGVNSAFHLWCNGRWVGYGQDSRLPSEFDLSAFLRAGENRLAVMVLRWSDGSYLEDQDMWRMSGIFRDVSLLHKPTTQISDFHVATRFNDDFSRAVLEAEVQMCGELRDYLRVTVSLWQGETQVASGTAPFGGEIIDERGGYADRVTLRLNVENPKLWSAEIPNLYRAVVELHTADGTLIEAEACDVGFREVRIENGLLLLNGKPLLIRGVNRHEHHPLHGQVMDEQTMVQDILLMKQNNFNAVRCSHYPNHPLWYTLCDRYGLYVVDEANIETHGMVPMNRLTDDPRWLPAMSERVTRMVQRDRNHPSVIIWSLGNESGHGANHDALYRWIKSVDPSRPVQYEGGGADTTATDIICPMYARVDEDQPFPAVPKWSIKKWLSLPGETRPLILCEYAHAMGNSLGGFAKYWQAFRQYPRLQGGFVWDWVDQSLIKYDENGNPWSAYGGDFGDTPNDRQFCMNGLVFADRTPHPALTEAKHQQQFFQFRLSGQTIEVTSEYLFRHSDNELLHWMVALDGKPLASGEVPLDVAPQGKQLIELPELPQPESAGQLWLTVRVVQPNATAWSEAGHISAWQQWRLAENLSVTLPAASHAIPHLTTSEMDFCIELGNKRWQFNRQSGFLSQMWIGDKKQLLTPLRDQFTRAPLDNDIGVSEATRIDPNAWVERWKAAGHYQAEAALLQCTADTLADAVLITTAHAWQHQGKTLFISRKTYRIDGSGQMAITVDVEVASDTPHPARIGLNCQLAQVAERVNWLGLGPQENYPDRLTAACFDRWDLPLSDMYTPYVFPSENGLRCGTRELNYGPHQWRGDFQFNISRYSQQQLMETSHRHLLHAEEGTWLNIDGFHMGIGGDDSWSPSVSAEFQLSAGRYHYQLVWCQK
Sequence of Cytochrome P450 3A4 (P08684 whole entry): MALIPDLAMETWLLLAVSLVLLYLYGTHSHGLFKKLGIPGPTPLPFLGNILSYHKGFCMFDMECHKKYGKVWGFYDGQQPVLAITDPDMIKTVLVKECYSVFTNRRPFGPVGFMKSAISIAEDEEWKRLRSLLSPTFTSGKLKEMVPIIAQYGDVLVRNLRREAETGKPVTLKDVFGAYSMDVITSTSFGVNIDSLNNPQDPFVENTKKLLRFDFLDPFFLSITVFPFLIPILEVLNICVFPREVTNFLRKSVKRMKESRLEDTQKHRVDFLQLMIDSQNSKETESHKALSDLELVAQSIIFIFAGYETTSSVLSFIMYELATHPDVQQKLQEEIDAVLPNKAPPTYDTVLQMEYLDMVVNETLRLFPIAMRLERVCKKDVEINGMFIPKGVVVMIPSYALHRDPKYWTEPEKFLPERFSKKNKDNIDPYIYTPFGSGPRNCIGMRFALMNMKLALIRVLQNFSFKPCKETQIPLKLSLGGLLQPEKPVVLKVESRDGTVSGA
Sequence of Paired box protein Pax-8 (Q06710 whole entry): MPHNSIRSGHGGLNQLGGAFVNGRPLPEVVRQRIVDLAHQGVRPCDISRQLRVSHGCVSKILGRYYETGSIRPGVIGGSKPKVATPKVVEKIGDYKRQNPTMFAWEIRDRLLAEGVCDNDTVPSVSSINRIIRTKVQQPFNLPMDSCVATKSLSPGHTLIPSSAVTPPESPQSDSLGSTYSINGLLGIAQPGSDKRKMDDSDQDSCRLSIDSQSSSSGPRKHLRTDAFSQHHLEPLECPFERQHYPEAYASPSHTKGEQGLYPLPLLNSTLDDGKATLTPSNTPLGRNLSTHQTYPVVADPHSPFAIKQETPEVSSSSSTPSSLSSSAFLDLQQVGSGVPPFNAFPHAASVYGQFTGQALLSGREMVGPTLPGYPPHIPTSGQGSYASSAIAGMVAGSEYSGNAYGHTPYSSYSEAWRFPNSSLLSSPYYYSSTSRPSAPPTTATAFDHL
Sequence of G-protein coupled receptor 55 (Q9Y2T6 whole entry): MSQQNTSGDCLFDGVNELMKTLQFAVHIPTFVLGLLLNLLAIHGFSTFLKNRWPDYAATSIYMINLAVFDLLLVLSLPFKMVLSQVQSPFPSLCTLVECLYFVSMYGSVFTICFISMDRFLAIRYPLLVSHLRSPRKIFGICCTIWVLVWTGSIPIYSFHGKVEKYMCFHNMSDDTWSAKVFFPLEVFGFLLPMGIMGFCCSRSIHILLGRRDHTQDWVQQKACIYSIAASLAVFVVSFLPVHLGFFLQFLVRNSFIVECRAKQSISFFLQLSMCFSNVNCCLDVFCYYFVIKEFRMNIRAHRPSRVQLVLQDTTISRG

## CCOc1ccc(NC2=c3c(Br)c(C)ccc3=NC2=O)cc1
[1]
  IC50: 7.77 µM (active)
[2]
  EC50: > 40 µM (inactive)

## C[C@H]1CC[C@H]2C(=O)N3[C@H](c4ccccc4Br)[C@@H](C)CC[C@H]3C(=O)N2[C@@H]1c1ccccc1Br
[3]
  IC50: 2.32 µM (active)
[4]
  IC50: 4.2 µM (active)

## CCCCCSc1nnc2c(n1)OC(c1cccn1C)N(C(C)=O)c1ccccc1-2 (configuration not stated)
[5]
  EC50: 10.6 µM (active)

## Cc1ccc(OCCOCCNC(C)(C)C)c([N+](=O)[O-])c1
[6]
  AC50: 46.9 µM (active)

## Brc1ccc2[nH]c3c(N4CCc5ccccc5C4)ncnc3c2c1
[3]
  IC50: 1.43 µM (active)
[7]
  EC50: 10.9 µM (active)
[8]
  AC50: 20.4 µM (active)
[9]
  EC50: 5.55 µM (active)
[4]
  IC50: 1.28 µM (active)
[10]
  EC50: > 150 µM (not active)

## CC(C)N(C(=O)CSc1nc2ccccc2n1-c1ccccc1)C(C)C
[8]
  AC50: 5.12 µM (active)
[11]
  IC50: 3.82 µM (active)

## COc1ccc(C(CNC(=O)Cc2ccc(-c3ccccc3)cc2)N(C)C)cc1 (configuration not stated)
[5]
  EC50: 0.267 µM (active)

## Cc1cc2cc(CN(CCN(C)C)C(S)=NCc3ccco3)c(O)nc2cc1C
[12]
  IC50: 10.4 µM (active)
[13]
  CC50: > 25 µM (active)

## Cc1cc(OCCCn2ccnc2)ccc1[N+](=O)[O-]
[5]
  EC50: 4.73 µM (active)

## Cc1ccc(C(=O)COC(=O)CNC(=O)C(c2ccccc2)c2ccccc2)cc1[N+](=O)[O-]
[1]
  IC50: 29.5 µM (not active)
[2]
  EC50: > 40 µM (inactive)
[14]
  AC50: 15.8 µM (inconclusive)

## O=C1Nc2ccccc2/C1=N/c1ccc(Br)cc1
[1]
  IC50: 7.4 µM (active)
[2]
  EC50: > 40 µM (inactive)

## CCCOc1ccccc1/C=C1\SC(N2CCCCC2)=NC1=O
[12]
  IC50: 5.33 µM (active)
[13]
  CC50: > 25 µM (active)
[15]
  CC50: 44.7 µM (active)

## Cc1noc2ncnc(N3CCN(c4cccc(Cl)c4)CC3)c12
[16]
  IC50: > 20 µM (inactive)
[17]
  IC50: 10.3 µM (inactive)
[18]
  EC50: 10.4 µM (active)
[19]
  IC50: 8.79 µM (active)

## CC1CCCN(C(=O)c2nn(C)c3c2CSc2ccccc2-3)C1 (configuration not stated)
[6]
  AC50: 48.3 µM (active)

## CC12CCC3C(CCC4(O)CC(O)CCC34C=NO)C1(O)CCC2C1=COC(=O)C1 (configuration not stated)
[12]
  IC50: > 25 µM (active)
[13]
  CC50: 0.62 µM (active)
[20]
  AC50: 1.12 µM (active)

## C=CCN1C(=O)c2ccc(C(=O)N3CCC(C(N)=O)CC3)cc2C1=O
[6]
  AC50: 57.7 µM (active)

## Cc1[nH]n(-c2ccc(Br)cc2)c(=O)c1/C=N/NC(=O)c1ccccc1
[21]
  EC50: 889 nM (active)
[22]
  AC50: 898 nM (active)
[9]
  EC50: 0.593 µM (active)
[23]
  EC50: 7.9 µM (active)
[24]
  EC50: 26.6 µM (active)
[10]
  EC50: 1.92 µM (active)
[25]
  AC50: 3.72 µM (active)
